Assay results taken from paper PMC2933066 (Bioorganic & medicinal chemistry letters, 2010).
Values after ≈ are worked out from the molar mass of the structure shown.

Columns and labels:
[1] = system: A549 (human lung adenocarcinoma); conditions: cited from earlier work
[2] = system: KB (human epidermoid carcinoma of the nasopharynx); conditions: cited from earlier work
tubulin = type: biochemical; conditions: read-out: Inhibition of tubulin assembly IC50 (μM) ± SD

| Structure (SMILES) | ED50 against A549 [1] | ED50 against KB [2] | IC50 (tubulin) |
| --- | --- | --- | --- |
| COc1cc2c(c(OC)c1O)-c1ccc(SC)c(=O)cc1C(NC(C)=O)CC2 (centres unmarked) [Compound 3, 2-Demethylthiocolchicine] | 0.01 µg/mL (≈ 0.0249 µM) | 0.01 µg/mL (≈ 0.0249 µM) |  |
| CN[C@H]1CCc2cc(OC)c(OP(=O)(O)O)c(OC)c2-c2ccc(SC)c(=O)cc21 [Compound 16] |  |  | > 40 µM |
| CCCN([C@H]1CCc2cc(OC)c(OC)c(OC)c2-c2ccc(SC)c(=O)cc21)S(=O)(=O)c1ccccc1[N+](=O)[O-] [Compound 13] |  |  | > 40 µM |
| CN[C@H]1CCc2cc(OC)c(O)c(OC)c2-c2ccc(SC)c(=O)cc21 [Compound 15] |  |  | > 40 µM |
